According to ChEMBL document CHEMBL1201862, “PubChem BioAssay data set” (2004):
Active and inactive are the calls of the source.

Key:
[1] = biological target: Glutathione-S-transferase (Schistosoma japonicum, UniProt Q26513); test: biotin-GST/anti-GST TR-FRET signal inhibitors, dose response, artefact control for Vif-APOBEC3G degradation inhibitor project, biochemical (AID 1117362); format: functional
[2] = biological target: T1, Heat shock 70 kDa protein 1A (Homo sapiens, UniProt P0DMV8); test: Hsp70 inhibitors, probe displacement, primary screen, biochemical, fluorescence polarization (AID 583)
[3] = biological target: Eukaryotic translation initiation factor 4E (Mus musculus, UniProt P63073); test: eIF4E–eIF4G protein interaction inhibitors, dose response, biochemical, TR-FRET (AID 855); format: functional;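 note: potency for disrupting eIF4E binding to eIF4GI seen as loss of FRET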
[4] = tested on: H4; test: Luminescence Cell-Based Dose Response HTS to Identify Activators of 5'UTR Stem-Loop Driven Prion Protein mRNA Translation in H4 Neuroglioblastoma Cells. [Related pubchem assays: 1829 (Project Summary), 1814 (Primary HTS)]; format: functional; conditions: Homo sapiens
[5] = biological target: T2, Tyrosine-protein phosphatase non-receptor type 7 (Homo sapiens, UniProt P35236); test: redox-dependent HePTP inhibition, mechanism study, biochemical, fluorescence (AID 2068); format: functional
T2 sequence (P35236 whole entry): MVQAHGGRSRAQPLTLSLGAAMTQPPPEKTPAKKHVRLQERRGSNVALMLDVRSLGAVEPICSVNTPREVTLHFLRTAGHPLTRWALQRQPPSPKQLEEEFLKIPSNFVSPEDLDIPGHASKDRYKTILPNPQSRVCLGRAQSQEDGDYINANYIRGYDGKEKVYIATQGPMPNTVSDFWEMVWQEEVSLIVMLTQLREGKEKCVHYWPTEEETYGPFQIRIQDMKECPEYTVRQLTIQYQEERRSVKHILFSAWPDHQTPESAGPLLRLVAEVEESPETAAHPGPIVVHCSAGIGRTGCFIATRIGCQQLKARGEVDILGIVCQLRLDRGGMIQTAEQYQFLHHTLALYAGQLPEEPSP

[6] = Luminescence Cell-Based Dose Confirmation HTS to Identify Activators of 5'UTR Stem-Loop Driven Alpha-Synuclein mRNA Translation in H4 Neuroglioblastoma Cells. [Related pubchem assays: 1829 (Project Summary), 1814 (Primary HTS)]; format: functional
[7] = biological target: Large T antigen (Simian virus 40, UniProt P03070); format: functional, Betapolyomavirus macacae;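 note: Confirmatory-stage PubChem screen for compounds that inhibit SV40 T antigen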
[8] = biological target: Induced myeloid leukemia cell differentiation protein Mcl-1 (Homo sapiens, UniProt Q07820); format: functional
[9] = biological target: Troponin, cardiac muscle (Homo sapiens, UniProt P19429+P45379+P63316); test: inhibitors of cardiac thin filament calcium sensitivity, dose response, biochemical, fluorescence, cardiac regulated thin filaments, triplicate IC50 (AID 504742); format: protein-complex assay
[10] = biological target: T1, Heat shock 70 kDa protein 1A; test: Hsp70 inhibitors, biochemical, TR-FRET (AID 786)
[11] = Luminescence Cell-Based Dose Response HTS to Identify Activators of Luciferase Translation or Activity in H4 […] Cells. [Related pubchem assays: 1829 (Project Summary), 1814 (Primary HTS)]; format: functional
[12] = Luminescence Cell-Based Dose Retest to Confirm Inhibitors of Cancer Stem Cells. [Related pubchem assays (depositor defined):AID2717, AID2721]; format: functional; conditions: Homo sapiens
[13] = biological target: Beta-galactosidase (Escherichia coli, UniProt Q8VNN2); test: beta-galactosidase enzyme inhibitors and activators, dose response, artefact control for CCR6 antagonist project, biochemical, E. coli enzyme, set 3 (AID 504712); format: functional
[14] = microbe, parasite or virus in culture; format: functional; conditions: Mycobacterium tuberculosis
[15] = biological target: Dual specificity protein phosphatase 3 (Homo sapiens, UniProt P51452); test: SAR VHR1 Fluorescent Assay for In Vitro dose response studies Set 2. [Related pubchem assays (depositor defined):AID1654, AID1661, AID1878]; format: functional
[16] = biological target: T3, Coagulation factor XII (Homo sapiens, UniProt P00748); format: functional;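 note: activated factor XIIa alpha cleaving a fluorogenic AMC peptide substrate; inhibitor potency from loss of enzyme activity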
T3 sequence (P00748 whole entry): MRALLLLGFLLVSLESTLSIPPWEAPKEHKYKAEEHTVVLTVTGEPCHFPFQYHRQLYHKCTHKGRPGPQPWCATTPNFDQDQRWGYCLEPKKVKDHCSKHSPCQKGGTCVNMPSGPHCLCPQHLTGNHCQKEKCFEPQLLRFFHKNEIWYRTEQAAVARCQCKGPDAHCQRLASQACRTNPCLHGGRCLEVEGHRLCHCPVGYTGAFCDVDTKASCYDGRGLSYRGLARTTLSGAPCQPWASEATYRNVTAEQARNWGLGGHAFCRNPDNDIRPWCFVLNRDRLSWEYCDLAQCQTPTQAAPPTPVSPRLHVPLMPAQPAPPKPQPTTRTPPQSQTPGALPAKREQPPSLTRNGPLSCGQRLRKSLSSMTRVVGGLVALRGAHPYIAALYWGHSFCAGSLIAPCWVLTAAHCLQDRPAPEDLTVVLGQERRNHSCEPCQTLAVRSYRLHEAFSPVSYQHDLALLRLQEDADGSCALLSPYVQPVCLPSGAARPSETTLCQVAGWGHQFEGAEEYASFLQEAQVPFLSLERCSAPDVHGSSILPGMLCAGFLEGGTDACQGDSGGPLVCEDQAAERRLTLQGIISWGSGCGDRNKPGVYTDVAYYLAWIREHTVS

[17] = biological target: T2, Tyrosine-protein phosphatase non-receptor type 7; test: SAR analysis of chemical inhibitors of HePTP using a Fluorescent assay - Set 2. [Related pubchem assays (depositor defined):AID1059, AID1077, AID1661, AID2085, AID521]; format: functional
[18] = biological target: Keap1/Nrf2 (Homo sapiens, UniProt Q14145); test: Keap1-Nrf2 protein-protein interaction inhibitors, dose response, biochemical, fluorescence polarization, cherry-picked samples (AID 588683)
[19] = biological target: T4, Zinc finger protein mex-5 (Caenorhabditis elegans, UniProt Q9XUB2); test: MEX-5/TCR-2 RNA interaction inhibitors, dose response, biochemical, C. elegans, fluorescence polarization (AID 1960)
T4 sequence (Q9XUB2 whole entry): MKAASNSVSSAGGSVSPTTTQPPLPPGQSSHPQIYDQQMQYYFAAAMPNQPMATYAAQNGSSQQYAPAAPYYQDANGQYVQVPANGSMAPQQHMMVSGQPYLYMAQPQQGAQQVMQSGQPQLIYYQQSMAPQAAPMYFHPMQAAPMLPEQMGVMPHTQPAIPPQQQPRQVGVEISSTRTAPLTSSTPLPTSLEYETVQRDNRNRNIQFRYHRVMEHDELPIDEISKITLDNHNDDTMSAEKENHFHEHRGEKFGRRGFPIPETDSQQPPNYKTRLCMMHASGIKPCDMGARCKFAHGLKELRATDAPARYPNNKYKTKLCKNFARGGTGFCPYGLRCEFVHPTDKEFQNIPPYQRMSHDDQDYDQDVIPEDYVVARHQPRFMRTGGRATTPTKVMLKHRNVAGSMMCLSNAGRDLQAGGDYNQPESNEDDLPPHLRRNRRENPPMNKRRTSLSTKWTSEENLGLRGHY

[20] = biological target: T5, RNA-binding protein pos-1 (Caenorhabditis elegans, UniProt G5EF15); test: inhibitors of POS-1/mex-3 RNA binding, dose response, biochemical, fluorescence polarization (AID 1964);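 note: purified POS-1 fused to maltose binding protein made in E. coli; potency of compounds blocking POS-1 binding to fluorescent RNA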
T5 sequence (G5EF15 whole entry): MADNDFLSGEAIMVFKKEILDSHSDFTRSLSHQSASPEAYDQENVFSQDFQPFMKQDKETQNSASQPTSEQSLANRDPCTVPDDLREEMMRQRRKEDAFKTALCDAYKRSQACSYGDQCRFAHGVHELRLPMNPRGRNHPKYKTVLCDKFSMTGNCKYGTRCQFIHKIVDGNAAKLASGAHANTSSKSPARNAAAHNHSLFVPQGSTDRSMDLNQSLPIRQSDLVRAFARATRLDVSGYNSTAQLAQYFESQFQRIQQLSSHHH

[21] = biological target: T6, Caspase-6 (Homo sapiens, UniProt P55212); test: human caspase-6 inhibitors, dose response, biochemical, VEID-R110 fluorescence, cherry-pick (AID 720632)
T6 sequence (P55212 whole entry): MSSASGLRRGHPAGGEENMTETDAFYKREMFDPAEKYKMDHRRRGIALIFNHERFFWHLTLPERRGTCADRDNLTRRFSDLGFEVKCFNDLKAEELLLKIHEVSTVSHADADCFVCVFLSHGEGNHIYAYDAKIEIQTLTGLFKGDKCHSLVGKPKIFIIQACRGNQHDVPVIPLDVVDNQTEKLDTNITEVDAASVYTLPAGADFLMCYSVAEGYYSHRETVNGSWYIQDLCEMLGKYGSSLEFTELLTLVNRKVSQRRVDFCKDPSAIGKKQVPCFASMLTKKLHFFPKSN

[22] = biological target: ORF 73 (Human herpesvirus 8, UniProt O40947); test: inhibitors of C-LANA binding to LBS DNA, dose response, biochemical, fluorescence polarization, cherry-picked samples (AID 504725); parameters: species or system Human gammaherpesvirus 8;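 note: fluorescence polarization of a labeled DNA duplex reporting LANA DNA binding; potency is for inhibitors that block LANA binding to the DNA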
[23] = biological target: T7, Long-chain-fatty-acid--AMP ligase FadD28 (Mycobacterium tuberculosis, UniProt P9WQ59); test: Fluorescence polarization aasay to screen for inhibitors that compete for the binding of FadD28 to a bisubstrate Measured in Biochemical System Using Plate Reader - 2147-01_Inhibitor_Dose_CherryPick_Activity.; format: functional, Mycobacterium tuberculosis H37Rv
T7 sequence (P9WQ59 whole entry): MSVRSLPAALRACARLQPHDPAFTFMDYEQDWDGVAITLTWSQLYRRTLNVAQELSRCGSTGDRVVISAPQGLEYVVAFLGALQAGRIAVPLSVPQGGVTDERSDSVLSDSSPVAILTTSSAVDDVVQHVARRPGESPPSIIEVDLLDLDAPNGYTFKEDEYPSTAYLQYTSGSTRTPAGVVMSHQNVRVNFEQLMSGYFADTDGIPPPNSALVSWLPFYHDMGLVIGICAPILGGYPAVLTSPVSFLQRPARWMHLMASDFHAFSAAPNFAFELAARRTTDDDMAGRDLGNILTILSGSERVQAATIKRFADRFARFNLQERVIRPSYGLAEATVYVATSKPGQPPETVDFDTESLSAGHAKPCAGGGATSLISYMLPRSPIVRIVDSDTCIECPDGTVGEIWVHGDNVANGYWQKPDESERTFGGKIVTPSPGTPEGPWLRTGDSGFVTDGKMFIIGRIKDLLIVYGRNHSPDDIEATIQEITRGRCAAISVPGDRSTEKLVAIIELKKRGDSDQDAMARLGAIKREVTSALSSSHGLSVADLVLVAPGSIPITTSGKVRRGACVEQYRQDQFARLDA

[24] = AlphaScreen signal interference compounds, dose response, artefact control for ARNT-TACC3 interaction inhibitor project, biochemical, luminescence, cherry-pick (AID 651705); format: functional;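 note: AlphaScreen bead proximity signal that flags compounds interfering with the detection technology; potency reflects signal decrease which marks the compound as an assay artifact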
[25] = tested on: HeLa; test: HeLa cell cytotoxicity, dose response, cytotoxicity control, 24 h, cherry-picked samples (AID 504726); format: functional, cell-based; conditions: Homo sapiens;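 note: potency for cytotoxicity as loss of luminescence signal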
[26] = biological target: Eukaryotic translation initiation factor 4H (Homo sapiens, UniProt Q15056); test: eIF4H inhibition in translation initiation, SAR follow-up (AID 435011); format: functional
[27] = biological target: Polyadenylate-binding protein 1 (Homo sapiens, UniProt P11940); test: PABP inhibition in translation initiation, SAR follow-up (AID 435018); format: functional
[28] = tested on: Trypanosoma cruzi; test: growth inhibition of intracellular Trypanosoma cruzi, dose response, cell-based, plate reader, dry powder, set 3 (AID 493197); format: functional
[29] = cytotoxicity in NIH/3T3 mouse fibroblasts, dose response, cytotoxicity control, cell-based, mouse embryonic fibroblasts, dry powder, set 2 (AID 493247); format: functional; conditions: Fibroblast
[30] = biological target: Potassium voltage-gated channel subfamily KQT member 2 (Rattus norvegicus, UniProt O88943); test: retigabine-insensitive KCNQ2 potentiators, concentration-response, dose response, cell-based, retigabine-insensitive compounds (AID 2654); format: functional
Potassium voltage-gated channel subfamily KQT member 2, sequence (O88943 whole entry): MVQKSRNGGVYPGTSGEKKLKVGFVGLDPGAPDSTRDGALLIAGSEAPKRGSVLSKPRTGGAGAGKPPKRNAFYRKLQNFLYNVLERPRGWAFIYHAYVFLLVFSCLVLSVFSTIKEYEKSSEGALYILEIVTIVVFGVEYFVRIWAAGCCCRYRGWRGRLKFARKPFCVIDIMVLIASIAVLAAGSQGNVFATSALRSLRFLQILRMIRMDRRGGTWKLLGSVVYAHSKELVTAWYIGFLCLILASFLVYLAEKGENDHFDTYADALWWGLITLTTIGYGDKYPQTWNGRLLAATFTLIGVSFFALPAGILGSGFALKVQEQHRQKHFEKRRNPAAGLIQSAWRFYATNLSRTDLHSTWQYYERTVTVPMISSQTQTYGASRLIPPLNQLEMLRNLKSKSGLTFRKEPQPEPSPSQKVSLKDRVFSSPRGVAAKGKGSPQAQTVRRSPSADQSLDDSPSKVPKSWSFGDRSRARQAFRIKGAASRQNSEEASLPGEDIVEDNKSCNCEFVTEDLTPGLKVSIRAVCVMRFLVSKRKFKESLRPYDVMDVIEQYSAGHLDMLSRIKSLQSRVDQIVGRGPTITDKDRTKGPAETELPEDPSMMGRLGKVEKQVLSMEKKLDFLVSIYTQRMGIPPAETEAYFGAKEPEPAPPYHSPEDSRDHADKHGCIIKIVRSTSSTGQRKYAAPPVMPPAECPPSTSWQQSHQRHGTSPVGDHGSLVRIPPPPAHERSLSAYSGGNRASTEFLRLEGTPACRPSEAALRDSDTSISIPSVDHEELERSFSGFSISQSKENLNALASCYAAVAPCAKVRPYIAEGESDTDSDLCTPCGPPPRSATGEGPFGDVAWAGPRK

Large T antigen, sequence (P03070 whole entry): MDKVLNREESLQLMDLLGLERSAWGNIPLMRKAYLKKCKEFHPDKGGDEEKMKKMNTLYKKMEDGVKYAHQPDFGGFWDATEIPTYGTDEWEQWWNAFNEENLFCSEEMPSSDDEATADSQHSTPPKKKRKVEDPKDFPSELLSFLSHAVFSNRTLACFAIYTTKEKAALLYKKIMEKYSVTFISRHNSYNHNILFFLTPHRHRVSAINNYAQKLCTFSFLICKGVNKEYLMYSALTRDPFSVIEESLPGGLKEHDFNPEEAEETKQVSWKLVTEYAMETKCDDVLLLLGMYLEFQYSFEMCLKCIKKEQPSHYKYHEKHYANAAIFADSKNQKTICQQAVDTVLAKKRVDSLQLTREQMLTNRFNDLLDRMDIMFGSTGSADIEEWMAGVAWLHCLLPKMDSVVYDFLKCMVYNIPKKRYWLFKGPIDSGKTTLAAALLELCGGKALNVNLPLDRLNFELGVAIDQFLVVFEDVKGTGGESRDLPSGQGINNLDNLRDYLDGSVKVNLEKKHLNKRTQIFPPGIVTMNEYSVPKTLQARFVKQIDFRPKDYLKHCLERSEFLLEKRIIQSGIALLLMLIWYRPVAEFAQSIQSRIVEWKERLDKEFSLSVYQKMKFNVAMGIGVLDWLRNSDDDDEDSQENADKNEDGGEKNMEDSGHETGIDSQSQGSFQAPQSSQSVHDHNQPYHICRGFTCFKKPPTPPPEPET
Eukaryotic translation initiation factor 4E, sequence (P63073 whole entry): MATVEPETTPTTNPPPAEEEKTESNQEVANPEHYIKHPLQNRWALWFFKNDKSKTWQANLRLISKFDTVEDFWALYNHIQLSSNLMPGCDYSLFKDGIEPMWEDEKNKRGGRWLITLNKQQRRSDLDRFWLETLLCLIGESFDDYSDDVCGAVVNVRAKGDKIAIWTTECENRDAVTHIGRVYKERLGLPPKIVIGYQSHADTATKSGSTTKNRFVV
T1 sequence (P0DMV8 whole entry): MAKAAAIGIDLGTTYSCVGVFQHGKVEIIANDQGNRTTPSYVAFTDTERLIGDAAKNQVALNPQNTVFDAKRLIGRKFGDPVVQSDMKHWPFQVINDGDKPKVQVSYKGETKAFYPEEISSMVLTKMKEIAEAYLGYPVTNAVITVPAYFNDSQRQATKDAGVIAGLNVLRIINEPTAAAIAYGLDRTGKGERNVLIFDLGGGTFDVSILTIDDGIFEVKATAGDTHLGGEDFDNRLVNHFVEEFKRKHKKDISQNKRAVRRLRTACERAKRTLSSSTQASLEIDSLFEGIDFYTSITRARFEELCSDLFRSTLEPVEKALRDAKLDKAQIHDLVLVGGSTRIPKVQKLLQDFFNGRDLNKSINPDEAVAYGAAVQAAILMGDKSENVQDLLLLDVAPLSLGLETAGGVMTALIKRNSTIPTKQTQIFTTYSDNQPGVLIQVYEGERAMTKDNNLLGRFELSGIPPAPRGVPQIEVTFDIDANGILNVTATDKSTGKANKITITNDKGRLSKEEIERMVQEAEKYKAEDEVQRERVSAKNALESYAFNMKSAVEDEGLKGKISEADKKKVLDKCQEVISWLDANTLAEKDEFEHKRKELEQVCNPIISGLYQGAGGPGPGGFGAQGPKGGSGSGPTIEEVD
Keap1/Nrf2, sequence (Q16236 whole entry): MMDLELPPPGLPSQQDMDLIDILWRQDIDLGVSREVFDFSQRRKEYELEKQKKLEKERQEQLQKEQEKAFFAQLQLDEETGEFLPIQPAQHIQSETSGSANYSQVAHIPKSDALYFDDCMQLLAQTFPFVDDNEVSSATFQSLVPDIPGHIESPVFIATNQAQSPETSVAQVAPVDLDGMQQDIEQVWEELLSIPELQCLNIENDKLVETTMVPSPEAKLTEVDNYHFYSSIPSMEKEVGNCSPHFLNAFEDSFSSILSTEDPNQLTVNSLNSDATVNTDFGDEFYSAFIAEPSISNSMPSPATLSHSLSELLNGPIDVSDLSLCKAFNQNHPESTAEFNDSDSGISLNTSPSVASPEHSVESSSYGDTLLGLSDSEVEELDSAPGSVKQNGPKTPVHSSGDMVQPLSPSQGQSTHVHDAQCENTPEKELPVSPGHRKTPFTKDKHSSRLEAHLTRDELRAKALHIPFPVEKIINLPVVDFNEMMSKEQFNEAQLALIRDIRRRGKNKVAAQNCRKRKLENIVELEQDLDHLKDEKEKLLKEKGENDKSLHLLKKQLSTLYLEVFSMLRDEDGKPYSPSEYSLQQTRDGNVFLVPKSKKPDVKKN
Keap1/Nrf2, sequence (Q14145 whole entry): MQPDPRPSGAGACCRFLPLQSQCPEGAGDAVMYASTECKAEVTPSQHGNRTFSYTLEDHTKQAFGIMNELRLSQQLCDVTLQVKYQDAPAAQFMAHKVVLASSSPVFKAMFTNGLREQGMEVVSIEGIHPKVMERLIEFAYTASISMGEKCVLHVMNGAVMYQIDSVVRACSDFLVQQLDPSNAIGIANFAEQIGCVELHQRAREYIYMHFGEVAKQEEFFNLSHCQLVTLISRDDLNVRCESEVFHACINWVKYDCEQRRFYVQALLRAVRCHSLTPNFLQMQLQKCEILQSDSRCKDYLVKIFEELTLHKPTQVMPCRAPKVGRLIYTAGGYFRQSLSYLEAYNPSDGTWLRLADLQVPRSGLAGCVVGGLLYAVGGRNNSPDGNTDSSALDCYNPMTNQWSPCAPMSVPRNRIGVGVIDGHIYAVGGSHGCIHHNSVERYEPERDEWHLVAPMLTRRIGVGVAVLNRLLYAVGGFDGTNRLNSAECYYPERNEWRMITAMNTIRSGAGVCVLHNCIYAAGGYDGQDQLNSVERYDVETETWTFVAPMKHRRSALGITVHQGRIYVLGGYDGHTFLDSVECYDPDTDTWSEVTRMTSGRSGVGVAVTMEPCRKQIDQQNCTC
Glutathione-S-transferase, sequence (Q26513 whole entry): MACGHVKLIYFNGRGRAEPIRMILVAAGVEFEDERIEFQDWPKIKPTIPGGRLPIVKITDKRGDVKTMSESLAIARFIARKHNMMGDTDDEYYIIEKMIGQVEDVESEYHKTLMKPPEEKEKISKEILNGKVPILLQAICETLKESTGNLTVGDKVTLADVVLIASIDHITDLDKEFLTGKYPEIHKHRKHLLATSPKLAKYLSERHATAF
Induced myeloid leukemia cell differentiation protein Mcl-1, sequence (Q07820 whole entry): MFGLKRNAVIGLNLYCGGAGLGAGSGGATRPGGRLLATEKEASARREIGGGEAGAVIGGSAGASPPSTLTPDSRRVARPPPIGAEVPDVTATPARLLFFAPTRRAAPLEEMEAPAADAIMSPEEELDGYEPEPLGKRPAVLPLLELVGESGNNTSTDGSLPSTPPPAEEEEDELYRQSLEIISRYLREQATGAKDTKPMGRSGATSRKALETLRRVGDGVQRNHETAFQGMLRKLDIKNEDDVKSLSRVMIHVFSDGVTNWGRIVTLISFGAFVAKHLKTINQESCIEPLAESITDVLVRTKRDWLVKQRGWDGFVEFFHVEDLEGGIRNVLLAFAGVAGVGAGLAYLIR
Polyadenylate-binding protein 1, sequence (P11940 whole entry): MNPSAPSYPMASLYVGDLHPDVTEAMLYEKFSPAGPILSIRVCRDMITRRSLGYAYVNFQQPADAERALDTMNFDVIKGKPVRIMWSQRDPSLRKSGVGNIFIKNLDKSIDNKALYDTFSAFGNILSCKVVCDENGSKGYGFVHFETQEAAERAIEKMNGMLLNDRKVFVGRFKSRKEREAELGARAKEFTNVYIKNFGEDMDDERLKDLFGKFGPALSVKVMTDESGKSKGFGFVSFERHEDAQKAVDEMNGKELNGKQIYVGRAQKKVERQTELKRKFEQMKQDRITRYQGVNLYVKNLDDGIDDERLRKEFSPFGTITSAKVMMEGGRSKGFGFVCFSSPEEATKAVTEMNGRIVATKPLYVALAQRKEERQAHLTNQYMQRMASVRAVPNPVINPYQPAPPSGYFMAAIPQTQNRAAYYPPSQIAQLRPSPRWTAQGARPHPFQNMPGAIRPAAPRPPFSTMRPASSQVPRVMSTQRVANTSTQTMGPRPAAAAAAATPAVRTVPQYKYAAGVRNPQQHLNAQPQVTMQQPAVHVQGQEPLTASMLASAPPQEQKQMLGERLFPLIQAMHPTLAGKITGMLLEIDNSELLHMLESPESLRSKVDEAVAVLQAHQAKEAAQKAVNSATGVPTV

O=C(Nc1ccc2nc(-c3ccco3)c(-c3ccco3)nc2c1)NC1CC1
IC50 [1]: 75.5 µM (active)
IC50 [2]: 73.3 µM (active)
IC50 [3]: 33.1 µM (inactive)
EC50 [4]: > 120 µM (not active)
IC50 [5]: 1.34 µM (active)
EC50 [6]: > 120 µM (not active)
IC50 [7]: 39.6 µM (active)
IC50 [8]: 2.92 µM (active)
IC50 [9]: 47.5 µM (inactive)
IC50 [10]: > 100 µM (not active)
EC50 [11]: 13.2 µM (active)

CNC(CC(=O)c1ccc([N+](=O)[O-])cc1)C(Cl)(Cl)Cl (configuration not stated)
AC50 [12]: 2.3 µM (active)
IC50 [13]: > 66.6 µM (inactive)
CC50 [14]: > 40 µM (active)

Nc1c(C(=O)NCc2cccnc2)sc(=S)n1-c1ccccc1
IC50 [15]: 78 µM (active)
IC50 [3]: > 64 µM (inactive)
IC50 [16]: > 50 µM (inactive)
IC50 [17]: > 100 µM (inactive)

NS(=O)(=O)c1ccc(N=Nc2cnc(O)c(O)c2)cc1
AC50 [18]: 17.1 µM (active)
EC50 [19]: 0.421 µM (active)
IC50 [7]: 27.5 µM (active)
EC50 [20]: 5.41 µM (active)
AC50 [21]: 3.44 µM (active)
AC50 [22]: 19.5 µM (active)
AC50 [23]: 22.8 µM (active)
AC50 [24]: 135 µM (active)
AC50 [25]: 43.8 µM (active)

COc1ccc(C(=O)N/N=C\c2ccc(OCC(=O)Nc3ccc(C)c(C)c3)c(OC)c2)cc1
IC50 [26]: > 100 µM (inactive)
IC50 [27]: > 100 µM (inactive)

COc1ccc(CCN(C)C(=O)C2CCCN(Cc3ccccc3Cl)C2)cc1OC (configuration not stated)
AC50 [28]: 13.7 µM (active)
AC50 [29]: 46.8 µM (active)

O=C(NCc1ccc(Cl)cc1Cl)Nc1ccc(F)nc1
EC50 [30]: 6.31 µM (active)
